Counter-ions that a name gives are not always drawn. Some results are limits rather than exact numbers.

As a reminder, the melting point is the temperature, or range, at which the solid turns liquid. In turn, `CCC(CC)c1nc(-c2nc(C)cs2)c(-c2ccc3ncsc3c2)[nH]1` (as salt: HCl) [Compound 62] registered a melting point of 207 to 212 °C.

In turn, `Cc1csc(-c2nc(CCCCC(=O)Nc3ccccc3)[nH]c2-c2ccc3ncsc3c2)n1` (as salt: HCl) [Compound 172] showed a melting point of 105 to 117.5 °C.

Consider `C=CCOC(=O)NCc1nc(-c2nc(C)cs2)c(-c2ccc3ncsc3c2)[nH]1` (as salt: HCl) [Compound 192], for which the melting point lay in the range of 174 to 175 °C.

As to `CCN(CC)C(=O)OCc1nc(-c2nc(C)cs2)c(-c2ccc3ncsc3c2)[nH]1` (as salt: HCl) [Compound 237], the melting point lay in the range of 119 to 124 °C.

Regarding `Cc1csc(-c2nc(CCCN3CCOCC3)[nH]c2-c2ccc3c(c2)OCO3)n1` (as salt: salt) [Compound 76], the melting point is 118.5 to 128.5 °C.

Molecule `NC(=O)c1ccc(-c2nc(-c3nccs3)c(-c3ccc4c(c3)OCO4)[nH]2)cc1` [Compound 2] yielded a melting point of 240 to 249 °C.

In turn, `NC(=O)c1ccc(-c2nc(-c3nccs3)c(-c3ccccn3)[nH]2)cc1` [Compound 4] yielded a melting point of 255.5 to 256 °C.

Take `CC(O)c1nc(-c2nc(-c3ccc(C(N)=O)cc3)[nH]c2-c2ccc3c(c2)OCO3)cs1` (stereo not drawn) [Compound 6]: the melting point was 140 to 148 °C.

`CC(=O)c1nc(-c2nc(-c3ccc(C(N)=O)cc3)[nH]c2-c2ccc3c(c2)OCO3)cs1` [Compound 7] gave a melting point of 153 to 159 °C.

In turn, `CCc1csc(-c2nc(-c3ccc(C(N)=O)cc3)[nH]c2-c2ccc3c(c2)OCO3)n1` [Compound 11] had a melting point of 259.5 to 261.5 °C.

Take `NC(=O)c1ccc(-c2nc(-c3nc(Br)cs3)c(-c3ccc4c(c3)OCO4)[nH]2)cc1` [Compound 13]: the melting point fell in the range of 273 to 275.5 °C.

`Cc1csc(-c2nc(-c3ccc(C#N)cc3)[nH]c2-c2ccc(F)cc2)n1` [Compound 17]: the melting point is 283.5 to 286 °C.

In the case of `Cc1csc(-c2nc(-c3ccc(C(N)=O)cc3)[nH]c2-c2ccc(F)cc2)n1` [Compound 18], the melting point lay within 281 to 281.5 °C.

The molecule `Cc1csc(-c2nc(N)[nH]c2-c2ccc3c(c2)OCO3)n1` [Compound 19] showed a melting point of 205.5 to 208 °C.

`CC(=O)Nc1nc(-c2nc(C)cs2)c(-c2ccc3c(c2)OCO3)[nH]1` [Compound 20] had a melting point of 169 to 173 °C.

Regarding `Cc1csc(-c2nc(NC(=O)c3ccccc3)[nH]c2-c2ccc3c(c2)OCO3)n1` [Compound 22], the melting point lay in the range of 223 to 225 °C.

As to `COc1ccc(CC(=O)NCc2nc(-c3nc(C)cs3)c(-c3ccc4c(c3)OCO4)[nH]2)cc1` [Compound 26], the melting point was in the range of 165.5 to 169.5 °C.

With `Cc1csc(-c2nc(CCN)[nH]c2-c2ccc3c(c2)OCO3)n1` [Compound 27], the melting point lay within 155.5 to 157.5 °C.

Turning to `CCCC(=O)NCCc1nc(-c2nc(C)cs2)c(-c2ccc3c(c2)OCO3)[nH]1` [Compound 28], the melting point lay within 148 to 150 °C.

Regarding `CCCC(=O)NCCCc1nc(-c2nc(C)cs2)c(-c2ccc3c(c2)OCO3)[nH]1` [Compound 30], the melting point lay in the range of 134.5 to 138.5 °C.

In turn, `CCCC(=O)NCCCCc1nc(-c2nc(C)cs2)c(-c2ccc3c(c2)OCO3)[nH]1` [Compound 33] registered a melting point of 132 to 133 °C.

`CCCNC(=O)c1nc(-c2nc(C)cs2)c(-c2ccc3c(c2)OCO3)[nH]1` [Compound 35]: the melting point was 199.6 to 200 °C.

The molecule `Cc1csc(-c2nc(C(=O)Nc3ccccc3)[nH]c2-c2ccc3c(c2)OCO3)n1` [Compound 36] gave a melting point of 222 to 222.5 °C.

`CCCNC(=O)CCc1nc(-c2nc(C)cs2)c(-c2ccc3c(c2)OCO3)[nH]1` [Compound 38] displayed a melting point of 106.5 to 108.5 °C.

`CCCNC(=O)CCCc1nc(-c2nc(C)cs2)c(-c2ccc3c(c2)OCO3)[nH]1` [Compound 40]: the melting point fell in the range of 75 to 79 °C.

For the molecule `COc1ccc(CNC(=O)CCCCc2nc(-c3nc(C)cs3)c(-c3ccc4c(c3)OCO4)[nH]2)cc1` [Compound 44], the melting point lay within 174 to 175 °C.

`Cc1csc(-c2nc(-c3ccc(C(N)=O)cc3)[nH]c2-c2ccc(O)cc2)n1` [Compound 49] returned a melting point of more than 300 °C.

`CCCCCCc1nc(-c2nc(C)cs2)c(-c2ccc3ncsc3c2)[nH]1` [Compound 64] gave a melting point of 129 to 130.5 °C.

Take `CCCC(=O)NCc1nc(-c2nc(C)cs2)c(-c2ccc(O)cc2)[nH]1` [Compound 101]: the melting point lay within 135.5 to 136.5 °C.

For `CCCC(=O)NCc1nc(-c2nc(C)cs2)c(-c2ccc(OC)c(OCc3ccccc3)c2)[nH]1` [Compound 104], the melting point fell in the range of 176 to 177 °C.

The molecule `Cc1csc(-c2nc(CNC(=O)CC(C)C)[nH]c2-c2ccc3ncsc3c2)n1` [Compound 107] showed a melting point of 160 to 160.5 °C.

With `Cc1csc(-c2nc(CNC(=O)C3CCC3)[nH]c2-c2ccc3ncsc3c2)n1` [Compound 108], the melting point was 199 to 200 °C.

Molecule `Cc1csc(-c2nc(CNC(=O)C(C)(C)C)[nH]c2-c2ccc3ncsc3c2)n1` [Compound 109] returned a melting point of 229 to 229.5 °C.

In turn, `Cc1csc(-c2nc(CNC(=O)CCC(C)C)[nH]c2-c2ccc3ncsc3c2)n1` [Compound 110] gave a melting point of 172.5 to 173.5 °C.

Take `CCC(C)(C)C(=O)NCc1nc(-c2nc(C)cs2)c(-c2ccc3ncsc3c2)[nH]1` [Compound 111]: the melting point was in the range of 212.5 to 213.5 °C.

With `Cc1csc(-c2nc(CNC(=O)C3CCCC3)[nH]c2-c2ccc3ncsc3c2)n1` [Compound 112], the melting point was 156.5 to 161 °C.

The molecule `Cc1csc(-c2nc(CNC(=O)CN(C)C)[nH]c2-c2ccc3ncsc3c2)n1` [Compound 114] returned a melting point of 211.5 to 212.5 °C.

`Cc1csc(-c2nc(CNC(=O)CCN(C)C)[nH]c2-c2ccc3ncsc3c2)n1` [Compound 115] returned a melting point of 150 to 150.5 °C.

Turning to `Cc1csc(-c2nc(CNC(=O)CCCN(C)C)[nH]c2-c2ccc3ncsc3c2)n1` [Compound 116], the melting point was 200.5 to 205.5 °C.

`Cc1csc(-c2nc(CNC(=O)C3CCN(C)CC3)[nH]c2-c2ccc3ncsc3c2)n1` [Compound 117] had a melting point of 204 to 205.5 °C.

`CNCC(=O)NCc1nc(-c2nc(C)cs2)c(-c2ccc3ncsc3c2)[nH]1` [Compound 118] had a melting point of 200.5 to 203.5 °C.

As to `Cc1csc(-c2nc(CNC(=O)CN)[nH]c2-c2ccc3ncsc3c2)n1` [Compound 120], the melting point lay in the range of 214.5 to 215 °C.

As for `Cc1csc(-c2nc(CNC(=O)CCO)[nH]c2-c2ccc3ncsc3c2)n1` [Compound 122], the melting point fell in the range of 215 to 218.5 °C.

For the molecule `COCCOCC(=O)NCc1nc(-c2nc(C)cs2)c(-c2ccc3ncsc3c2)[nH]1` [Compound 123], the melting point fell in the range of 134 to 135.5 °C.

With `COCCCC(=O)NCc1nc(-c2nc(C)cs2)c(-c2ccc3ncsc3c2)[nH]1` [Compound 125], the melting point is 186.5 to 190 °C.

`Cc1csc(-c2nc(CNC(=O)COCCO)[nH]c2-c2ccc3ncsc3c2)n1` [Compound 126] registered a melting point of 193 to 194 °C.

Consider `COCCC(=O)NCc1nc(-c2nc(C)cs2)c(-c2ccc3ncsc3c2)[nH]1` [Compound 127], for which the melting point lay within 154.5 to 155.5 °C.

For the molecule `Cc1csc(-c2nc(CNC(=O)C3CCOC3)[nH]c2-c2ccc3ncsc3c2)n1` (stereo not drawn) [Compound 128], the melting point lay in the range of 174 to 175 °C.

As to `Cc1csc(-c2nc(CNC(=O)C3CCCO3)[nH]c2-c2ccc3ncsc3c2)n1` (stereo not drawn) [Compound 130], the melting point is 185 to 185.5 °C.

`CCCCNC(=O)c1nc(-c2nc(C)cs2)c(-c2ccc3ncsc3c2)[nH]1` [Compound 140] came in with a melting point of 209.5 to 212.5 °C.

Turning to `COC(=O)CCc1nc(-c2nc(C)cs2)c(-c2ccc3ncsc3c2)[nH]1` [Compound 142], the melting point was in the range of 168.5 to 170.5 °C.

`Cc1csc(-c2nc(CCC(=O)NC(C)C)[nH]c2-c2ccc3ncsc3c2)n1` [Compound 145] returned a melting point of 217.5 to 218 °C.

Consider `Cc1csc(-c2nc(CCC(=O)NC3CC3)[nH]c2-c2ccc3ncsc3c2)n1` [Compound 146], for which the melting point lay in the range of 196.5 to 197 °C.

Take `Cc1csc(-c2nc(CCC(=O)NC(C)(C)C)[nH]c2-c2ccc3ncsc3c2)n1` [Compound 147]: the melting point was 201.5 to 202 °C.

For `Cc1csc(-c2nc(CCC(=O)N3CCCCC3)[nH]c2-c2ccc3ncsc3c2)n1` [Compound 148], the melting point is 179 to 180 °C.

Molecule `Cc1csc(-c2nc(CCC(=O)NCCN(C)C)[nH]c2-c2ccc3ncsc3c2)n1` [Compound 149] displayed a melting point of 163.5 to 164 °C.

Consider `Cc1csc(-c2nc(CCC(=O)NCCCN(C)C)[nH]c2-c2ccc3ncsc3c2)n1` [Compound 150], for which the melting point fell in the range of 78.5 to 82.5 °C.

Molecule `Cc1csc(-c2nc(CCC(=O)NCCN3CCCCC3)[nH]c2-c2ccc3ncsc3c2)n1` [Compound 151] registered a melting point of 114 to 119 °C.

Consider `Cc1csc(-c2nc(CCC(=O)NCCN3CCCC3)[nH]c2-c2ccc3ncsc3c2)n1` [Compound 152], for which the melting point lay within 171 to 173 °C.

`Cc1csc(-c2nc(CCC(=O)NCCCN3CCN(C)CC3)[nH]c2-c2ccc3ncsc3c2)n1` [Compound 153] returned a melting point of 188 to 189 °C.

Regarding `Cc1csc(-c2nc(CCC(=O)N3CCN(C)CC3)[nH]c2-c2ccc3ncsc3c2)n1` [Compound 155], the melting point is 201 to 201.5 °C.

On to `Cc1csc(-c2nc(CCC(=O)N3CCN(CCN4CCOCC4)CC3)[nH]c2-c2ccc3ncsc3c2)n1` [Compound 157], for which the melting point fell in the range of 164.5 to 166 °C.

As for `Cc1csc(-c2nc(CCC(=O)N3CCN(CCN(C)C)CC3)[nH]c2-c2ccc3ncsc3c2)n1` [Compound 158], the melting point is 169.5 to 172 °C.

`Cc1csc(-c2nc(CCC(=O)N3CCOCC3)[nH]c2-c2ccc3c(c2)OCO3)n1` [Compound 161] returned a melting point of 216.5 to 218 °C.

`COCCCNC(=O)CCc1nc(-c2nc(C)cs2)c(-c2ccc3ncsc3c2)[nH]1` [Compound 164] showed a melting point of 144.5 to 145 °C.

Regarding `COc1ccc(CNC(=O)CCCCc2nc(-c3nc(C)cs3)c(-c3ccc4ncsc4c3)[nH]2)cc1` [Compound 173], the melting point lay within 140 to 140.5 °C.

The record behind these values is patent US7678810B2, “Thiazole derivative” (Taisho Pharmaceutical Co., Ltd, priority 2004, dated 2010).
